Test results reported in patent publication US20260284240A1, “RADIOLABELED COMPOUND FOR USE IN A METHOD OF TREATING CARBONIC ANHYDRASE IX POSITIVE DISEASES” (DEBIOPHARM INTERNATIONAL S.A., priority 2023, published 2026).
Starred links: 1 amine or outer side, 2 acyl side, 3 side chain; linkers in the order of their positions; H or OH if unused. Positions of bridges follow the written chain, without caps; N, C: chain ends. Non-standard residues stand in square brackets, D forms with d. Residues, ends and D or L forms follow the SMILES beside them. *: point of attachment. Phe(3-NHCO(CH2)3SO2NH2) = N[C@@H](Cc1cccc(NC(=O)CCCS(N)(=O)=O)c1)C(=O)O; DOTA = O=C(O)CN1CCN(CC(=O)O)CCN(CC(=O)*)CCN(CC(=O)O)CC1; mXylylene = c1cc(C[*:1])cc(C[*:2])c1; X1 = O=C(CN1CCN([*:1])CC1)[*:2]

Assay: Dose range finding toxicity study by i.v. bolus in male beagle dogs
Format: in vivo, dog
Settings: i.v. bolus up to 800 μg/kg
Procedure: The following parameters and endpoints were evaluated: mortality, clinical observations, body weights, food consumption, local reactions, clinical pathology parameters (hematology, coagulation, and clinical chemistry), organ weights, and macroscopic examinations. Both animals were sampled for toxicokinetics (TK) on each dosing occasion (i.e., on day 1, day 5, day 9 and day 13) at: pre-dose, 15 min, 30 min, 1 h, 6 h and 24 h. Blood samples were collected in K2EDTA tubes. Plasma was prepared by centrifugation (2500 g for 10 minutes, +4° C.) within 1 hour after collection, and then frozen within 1 hour after centrifugation and stored at −80° C. […] Chromatographic separation was achieved using a Waters Acquity UPLC system with a Waters Acquity HSS T3 C18 2.1×50 mm, 1.8 μm column. Chromatography was conducted at 50° C. at a flow rate of 0.7 mL/min using a mobile phase consisting of A: acetonitrile, and B: 1% formic acid in water, according to the following linear gradient: 0 to 0.1 min: 90% B; 0.1 to 4.1 min: from 90% B to 74% B; 4.1 to 4.2 min: from 74% B to 5% B; 4.2 to 4.6 min: 5% B; 4.6 to 4.7 min: from 5% B to 90% B; 4.7-5.1 min; 90% B. Detection was performed using a Sciex AP16600 TOF mass spectrometer. Toxicokinetic parameters were estimated from concentration-time data using Phoenix pharmacokinetic software (version 6.4, Certara L.P.). […]

CC(C)C[C@@H]1NC(=O)[C@H](Cc2cccc(NC(=O)CCCS(N)(=O)=O)c2)NC(=O)[C@H](CC(=O)O)NC(=O)[C@H]2CCCN2C(=O)[C@H](CCC(=O)O)NC(=O)[C@@H](NC(=O)[C@H](CCC(N)=O)NC(=O)CN2CCN(C(=O)CN3CCN(CC(=O)O)CCN(CC(=O)O)CCN(CC(=O)O)CC3)CC2)CSCc2cccc(c2)CSC[C@@H](C(N)=O)NC(=O)[C@H](CO)NC(=O)[C@H](Cc2c[nH]c3ccccc23)NC(=O)[C@H]([C@@H](C)O)NC1=O [DPI-4452, DOTA-PPAc-Gln-[Cys(3MeBn)-Glu-pro-Asp-Af3(Cpsu)-Leu-Thr-Trp-Ser-Cys]-NH2] ({DOTA}-[X1]QCE[dP]D[Phe(3-NHCO(CH2)3SO2NH2)]LTWSC-NH2; linker 3-12 via mXylylene)
Tolerability: well tolerated systemically and locally
